Results from article PMC12794084, “Radiosynthesis and Preclinical Evaluation of a Novel ^11C‑Labeled Pyrazolopyrimidine Derivative for Positron Emission Tomography Imaging of Phosphodiesterase 2A” (ACS Medicinal Chemistry Letters, 2025).
Read-outs that look alike come from different tables or passages of the source.

Columns and labels:
PDE2A [1] = target: T1, PDE2A (Rattus norvegicus, UniProt Q01062); test: In vitro autoradiography on SD rat brain sections; assay type: binding; conditions: co-incubation with 1 μM blocker
T1 construct: we first conducted in vitro autoradiography studies on SD rat brain sections; from tissue; host or cells: male Sprague-Dawley rat brain sections (20 μm)
T1 sequence (Q01062 1-928): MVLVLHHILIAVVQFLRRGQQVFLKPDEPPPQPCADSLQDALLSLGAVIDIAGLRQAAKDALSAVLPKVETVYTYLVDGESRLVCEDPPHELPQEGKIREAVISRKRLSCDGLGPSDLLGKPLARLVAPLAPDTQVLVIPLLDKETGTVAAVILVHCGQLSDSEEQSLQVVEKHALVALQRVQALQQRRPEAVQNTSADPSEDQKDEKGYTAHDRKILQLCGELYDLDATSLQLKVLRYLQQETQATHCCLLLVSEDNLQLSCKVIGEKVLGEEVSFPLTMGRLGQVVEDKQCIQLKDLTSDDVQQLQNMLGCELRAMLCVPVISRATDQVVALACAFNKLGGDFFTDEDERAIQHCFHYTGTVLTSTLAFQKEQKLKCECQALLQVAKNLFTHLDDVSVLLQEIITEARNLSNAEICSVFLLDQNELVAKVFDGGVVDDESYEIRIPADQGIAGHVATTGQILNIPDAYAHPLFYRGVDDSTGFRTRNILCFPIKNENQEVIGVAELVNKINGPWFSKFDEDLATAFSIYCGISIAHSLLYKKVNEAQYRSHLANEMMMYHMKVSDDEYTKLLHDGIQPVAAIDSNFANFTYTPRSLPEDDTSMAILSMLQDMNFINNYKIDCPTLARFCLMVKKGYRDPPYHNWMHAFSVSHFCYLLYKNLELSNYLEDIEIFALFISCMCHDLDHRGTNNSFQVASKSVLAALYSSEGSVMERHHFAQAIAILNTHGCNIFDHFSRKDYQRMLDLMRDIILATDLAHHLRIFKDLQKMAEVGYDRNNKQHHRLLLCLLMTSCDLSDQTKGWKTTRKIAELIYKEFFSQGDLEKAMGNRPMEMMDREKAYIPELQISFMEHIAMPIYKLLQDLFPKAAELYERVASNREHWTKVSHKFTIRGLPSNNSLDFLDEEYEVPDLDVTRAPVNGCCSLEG
Procedure: After incubation, sections were washed three times (2 min each) with prechilled buffer and briefly rinsed in cold distilled water (10 s). The slices were then air-dried and placed on imaging screens for 60 min before being scanned using a BAS5000 system (Fujifilm).

[2] = Dynamic PET imaging in SD rats; assay type: in vivo; conditions: SD rat, baseline
Procedure: Dynamic PET imaging was performed using an Inveon PET scanner (Siemens). […] Images were reconstructed using a Hanning filter with a Nyquist cutoff of 0.5 cycles/pixel, with the following framing: 4 × 1 min, 8 × 2 min, and 8 × 5 min. Data analysis was performed using PMOD version 3.4.

[3] = Ex vivo whole-body biodistribution in ddY mice; design: species or system mouse; conditions: 60 min postinjection, i.v.
Procedure: Decay-corrected radioactivity in each organ was measured using a Wizard automatic gamma counter (PerkinElmer, USA).

[4] = Ex vivo radiometabolite analysis in SD rats; conditions: SD rat
Description: Brain and plasma samples were rapidly collected and processed following previously reported procedures.

PDE2A [5] = target: PDE2A (Homo sapiens, UniProt O00408); conditions: cited from earlier work
Chain of PDE2A (Homo sapiens, UniProt O00408) (O00408 whole entry): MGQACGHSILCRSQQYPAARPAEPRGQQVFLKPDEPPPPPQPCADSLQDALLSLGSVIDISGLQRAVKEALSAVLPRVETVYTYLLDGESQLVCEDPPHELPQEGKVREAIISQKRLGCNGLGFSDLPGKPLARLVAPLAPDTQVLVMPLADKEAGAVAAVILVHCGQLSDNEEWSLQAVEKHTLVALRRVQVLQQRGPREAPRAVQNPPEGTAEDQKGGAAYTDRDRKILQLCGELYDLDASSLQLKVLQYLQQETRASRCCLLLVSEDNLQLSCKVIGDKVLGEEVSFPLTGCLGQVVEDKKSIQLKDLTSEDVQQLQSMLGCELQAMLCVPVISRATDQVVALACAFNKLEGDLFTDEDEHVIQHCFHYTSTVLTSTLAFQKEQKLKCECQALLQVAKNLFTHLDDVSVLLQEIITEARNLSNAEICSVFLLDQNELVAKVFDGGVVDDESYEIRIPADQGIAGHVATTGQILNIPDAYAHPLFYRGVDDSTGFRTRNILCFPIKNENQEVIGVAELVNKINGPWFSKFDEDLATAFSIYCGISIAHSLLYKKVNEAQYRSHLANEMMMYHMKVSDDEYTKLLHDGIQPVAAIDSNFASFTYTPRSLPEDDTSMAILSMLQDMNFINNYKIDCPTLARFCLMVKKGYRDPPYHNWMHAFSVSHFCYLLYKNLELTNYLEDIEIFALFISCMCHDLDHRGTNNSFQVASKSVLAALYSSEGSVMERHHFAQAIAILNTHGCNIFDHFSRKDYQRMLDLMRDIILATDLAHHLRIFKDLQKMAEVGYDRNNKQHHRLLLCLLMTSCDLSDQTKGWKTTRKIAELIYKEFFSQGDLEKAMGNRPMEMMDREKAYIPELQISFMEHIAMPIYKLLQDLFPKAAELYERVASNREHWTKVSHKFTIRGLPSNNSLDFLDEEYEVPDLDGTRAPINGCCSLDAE

[6] = logD by shake flask method with LC-MS/MS analysis; assay type: physicochemical
Unbound brain fraction = assay type: in vitro ADME

COc1ccc(Cc2nn3c([C@@H](CCCc4ccccc4)[C@@H](C)O)nc(C)c3c(=O)[nH]2)cc1OC [BAY 60-7550]
blocking effect on [11C]1 signal in autoradiography (PDE2A [1]): significantly reduced the radiotracer signal in PDE2A-rich regions

Cn1ncc(-c2nn(C)c3ncnc(N4CCC4)c23)c1-c1ccc(C(F)(F)F)cc1 [PF-05085727]
blocking effect on [11C]1 signal in autoradiography (PDE2A [1]): significantly reduced the radiotracer signal in PDE2A-rich regions

Cc1nc(NC2(c3ccc(C(F)(F)F)cc3)CC2)c2cnn([11CH3])c2n1 [[^11C]1]
brain distribution in summed PET images ([2]; 3–20 min): homogeneous distribution
SUVmax (brain uptake) ([2]; at 2 min postinjection): 1.65
brain SUV ([2]; by 20 min): below 0.5
small intestine uptake [3]: 11 ± 1.5 % ID/g
% of unchanged form in brain ([4]; 10 min postinjection): 97%
% of unchanged form in plasma ([4]; 10 min postinjection): 54%
% of unchanged form in brain ([4]; 30 min postinjection): 86%
% of unchanged form in plasma ([4]; 30 min postinjection): 34%

Cc1nc(-c2cnn(C)c2-c2ccc(C(F)(F)F)cc2)c2c(N3CC([18F])C3)ncnn12 [[^18F]PF-05270430]
IC50 (PDE2A [5]; literature PET radioligands): 0.5 nM

COc1ccc2nnc3c(C)nc(-c4cc(OCCCC[18F])ccc4F)n3c2n1 [[^18F]TA4]
IC50 (PDE2A [5]; triazine scaffold tracers, ref Schröder et al.): 7.3 nM

Cc1nc(NC2(c3ccc(C(F)(F)F)cc3)CC2)c2cnn(C)c2n1 [compound 1, 1,6-Dimethyl-N-(1-(4-(trifluoromethyl)-phenyl)-cyclopropyl)-1H-pyrazolo[3,4-d]-pyrimidin-4-amine]
logD [6]: 3.88
f u brain (Unbound brain fraction): 7.2%
